How the values were obtained:
Type in all cases: biochemical
[1] = biological target: T1, MERTK (Homo sapiens, UniProt Q12866); experiment: MERTK enzymatic assay (Kinase Glo); settings: purified kinase, ATP 12 μM, read-out: MER Enzymatic Inhibition (%)
T1 sequence (Q12866 21-999): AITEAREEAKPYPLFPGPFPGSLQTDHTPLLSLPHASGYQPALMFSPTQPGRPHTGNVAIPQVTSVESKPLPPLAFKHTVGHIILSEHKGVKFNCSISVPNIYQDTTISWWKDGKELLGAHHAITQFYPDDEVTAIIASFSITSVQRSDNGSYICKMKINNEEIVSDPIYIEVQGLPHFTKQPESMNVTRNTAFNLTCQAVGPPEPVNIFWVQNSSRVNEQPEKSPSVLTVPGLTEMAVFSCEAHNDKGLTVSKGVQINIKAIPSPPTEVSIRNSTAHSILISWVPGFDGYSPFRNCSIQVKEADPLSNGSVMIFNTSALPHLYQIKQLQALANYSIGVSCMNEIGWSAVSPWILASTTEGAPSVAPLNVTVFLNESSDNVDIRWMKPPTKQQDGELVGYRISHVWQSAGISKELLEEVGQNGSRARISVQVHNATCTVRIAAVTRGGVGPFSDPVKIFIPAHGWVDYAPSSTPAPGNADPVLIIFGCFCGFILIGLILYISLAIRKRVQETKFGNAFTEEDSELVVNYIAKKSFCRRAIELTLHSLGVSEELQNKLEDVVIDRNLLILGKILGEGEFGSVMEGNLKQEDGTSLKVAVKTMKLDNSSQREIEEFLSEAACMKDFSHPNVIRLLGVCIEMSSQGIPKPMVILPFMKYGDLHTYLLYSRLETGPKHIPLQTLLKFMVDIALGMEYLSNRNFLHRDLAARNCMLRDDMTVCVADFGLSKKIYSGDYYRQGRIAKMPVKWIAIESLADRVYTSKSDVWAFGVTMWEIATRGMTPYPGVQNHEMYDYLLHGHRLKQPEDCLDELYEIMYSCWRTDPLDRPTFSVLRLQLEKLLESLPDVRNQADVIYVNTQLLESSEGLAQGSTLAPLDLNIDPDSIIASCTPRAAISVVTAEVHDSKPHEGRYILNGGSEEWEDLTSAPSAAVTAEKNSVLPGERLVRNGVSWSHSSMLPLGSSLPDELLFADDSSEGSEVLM

[2] = biological target: T2, AXL (Homo sapiens, UniProt P30530); experiment: AXL enzymatic assay (ADP-Glo); settings: purified kinase, ATP 50 μM, read-out: AXL Enzymatic Inhibition (%)
T2 sequence (P30530 26-894): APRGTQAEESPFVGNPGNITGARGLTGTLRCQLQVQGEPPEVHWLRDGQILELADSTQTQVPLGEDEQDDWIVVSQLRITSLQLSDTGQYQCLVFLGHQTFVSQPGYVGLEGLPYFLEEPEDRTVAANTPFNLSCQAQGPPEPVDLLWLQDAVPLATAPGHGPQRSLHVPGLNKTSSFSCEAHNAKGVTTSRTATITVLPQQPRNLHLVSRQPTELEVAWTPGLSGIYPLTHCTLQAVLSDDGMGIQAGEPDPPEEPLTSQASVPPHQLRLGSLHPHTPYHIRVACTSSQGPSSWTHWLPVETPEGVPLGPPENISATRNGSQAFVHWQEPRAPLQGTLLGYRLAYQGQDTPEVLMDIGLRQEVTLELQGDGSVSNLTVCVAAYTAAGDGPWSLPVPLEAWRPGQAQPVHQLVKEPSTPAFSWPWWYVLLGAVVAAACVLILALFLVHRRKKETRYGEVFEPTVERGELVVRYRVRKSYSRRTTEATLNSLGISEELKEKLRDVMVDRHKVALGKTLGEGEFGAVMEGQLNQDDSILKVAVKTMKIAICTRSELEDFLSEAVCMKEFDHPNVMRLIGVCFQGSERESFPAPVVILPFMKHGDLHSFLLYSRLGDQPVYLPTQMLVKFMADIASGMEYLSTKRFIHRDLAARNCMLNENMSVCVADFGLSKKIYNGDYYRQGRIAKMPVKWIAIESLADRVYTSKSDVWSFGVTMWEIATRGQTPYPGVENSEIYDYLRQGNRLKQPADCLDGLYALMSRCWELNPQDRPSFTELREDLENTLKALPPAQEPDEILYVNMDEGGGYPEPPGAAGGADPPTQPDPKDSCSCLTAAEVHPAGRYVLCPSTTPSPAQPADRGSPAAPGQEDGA

[3] = system: MER/AXL; experiment: Dual MER/AXL inhibition (enzymatic); settings: class for both MER and AXL

Row | Compound | IC50 [1] | IC50 [2] | IC50 [3]
1 | Cn1cc(-c2oc3ncnc(Oc4ccc(NC(=O)c5ccc(-c6ccc(F)cc6)o5)cc4)c3c2-c2cccc(N)c2)cn1 [Compound 117] | 100 to 50000 nM | 20 to 100 nM | 100 to 50000 nM
2 | Cn1cc(-c2cc3c(Oc4ccc(NC(=O)c5cccn(C6CCCCC6)c5=O)cc4)ncnc3o2)cn1 [Compound 86] | 100 to 50000 nM | 100 to 50000 nM | 100 to 50000 nM
3 | CC(=O)Nc1cccc(-c2c(-c3cn[nH]c3)oc3ncnc(Oc4ccc(NC(=O)c5cccn(-c6ccc(F)cc6)c5=O)cc4)c23)c1 [Compound 40] | 20 to 100 nM | < 20 nM | 20 to 100 nM
4 | Cc1ccn(-c2ccc(F)cc2)c(=O)c1C(=O)Nc1ccc(Oc2ncnc3oc(-c4cnn(C)c4)c(-c4cccc(N)c4)c23)cc1 [Compound 71] | < 20 nM | < 20 nM | < 20 nM
5 | Cn1cc(-c2oc3ncnc(Oc4ccc(NC(=O)c5cccn(-c6ccc(F)cc6)c5=O)cc4)c3c2-c2cccnc2)cn1 [Compound 31] | 100 to 50000 nM | < 20 nM | 100 to 50000 nM
6 | CC(=O)Nc1cccc(-c2c(-c3cnn(C)c3)oc3ncnc(Oc4ccc(NC(=O)c5c(C)ccn(-c6ccc(F)cc6)c5=O)cc4)c23)c1 [Compound 72] | 100 to 50000 nM | 100 to 50000 nM | 100 to 50000 nM
7 | O=C(Nc1ccc(Oc2ncnc3[nH]c(-c4ccsc4)cc23)cc1)c1cccn(-c2ccc(F)cc2)c1=O [Compound 79] | 100 to 50000 nM | 100 to 50000 nM | 100 to 50000 nM
8 | Cn1cc(-c2oc3ncnc(Oc4ccc(NC(=O)c5cccn(-c6ccc(F)cc6)c5=O)cc4)c3c2-c2ccc(N3CCNCC3)cc2)cn1 [Compound 32] | < 20 nM | < 20 nM | < 20 nM
9 | CCOc1ccn(-c2ccc(F)cc2)c(=O)c1C(=O)Nc1ccc(Oc2ncnc3[nH]cc(-c4cccc(N)c4)c23)cc1 [Compound 1] | 20 to 100 nM | < 20 nM | 20 to 100 nM
10 | CN(C)Cc1cccc(-c2c[nH]c3ncnc(Oc4ccc(NC(=O)c5cccn(-c6ccc(F)cc6)c5=O)cc4)c23)c1 [Compound 82] | < 20 nM | < 20 nM | < 20 nM
11 | CN(c1cccc(-c2c(-c3cnn(C)c3)oc3ncnc(Oc4ccc(NC(=O)c5cccn(-c6ccc(F)cc6)c5=O)cc4)c23)c1)S(C)(=O)=O [Compound 65] | 100 to 50000 nM | 20 to 100 nM | 100 to 50000 nM
12 | CC(=O)Nc1cccc(-c2c(-c3cnn(C)c3)oc3ncnc(Oc4ccc(NC(=O)c5cccn(-c6ccccc6)c5=O)cc4)c23)c1 [Compound 56] | 20 to 100 nM | < 20 nM | 20 to 100 nM
13 | CN(C)Cc1cccc(-c2c[nH]c3ncnc(Oc4ccc(NC(=O)c5cn(C)n(-c6ccc(F)cc6)c5=O)cc4)c23)c1 [Compound 134] | 100 to 50000 nM | 100 to 50000 nM | 100 to 50000 nM
14 | Cn1cc(-c2oc3ncnc(Oc4ccc(NC(=O)c5ccc(-c6cccc(F)c6)o5)cc4)c3c2-c2cccc(N)c2)cn1 [Compound 119] | 100 to 50000 nM | 20 to 100 nM | 100 to 50000 nM
15 | CN1CCN(c2cccc(-c3c(-c4cnn(C)c4)oc4ncnc(Oc5ccc(NC(=O)c6cccn(-c7ccc(F)cc7)c6=O)cc5)c34)c2)CC1 [Compound 38] | 20 to 100 nM | < 20 nM | 20 to 100 nM
16 | Cn1cc(-c2oc3ncnc(Oc4ccc(NC(=O)c5cn(C)n(-c6ccc(F)cc6)c5=O)cc4)c3c2-c2cccc(CN3CCNCC3)c2)cn1 [Compound 130] | 100 to 50000 nM | 100 to 50000 nM | 100 to 50000 nM
17 | Cn1cc(C(=O)Nc2ccc(Oc3ncnc4[nH]cc(-c5cccc(N)c5)c34)cc2)c(=O)n1-c1ccc(F)cc1 [Compound 124] | 100 to 50000 nM | 100 to 50000 nM | 100 to 50000 nM

From patent US20260070911A1, “INHIBITORS OF TAM RECEPTORS” (National Health Research Institutes, priority 2022, published 2026)
